Results taken from ChEMBL document CHEMBL4390671, “FragLites-Minimal, Halogenated Fragments Displaying Pharmacophore Doublets. An Efficient Approach to Druggability Assessment and Hit Generation” (J Med Chem, 2019).
The source made the active and inactive calls. The rule behind the calls is not given here.

Experiments:
[1] = biological target: T1, Cyclin-dependent kinase 2 (Homo sapiens, UniProt P24941); assay: Binding affinity to full-length human CDK2 expressed in Escherichia coli BL21 (DE3) pLysS cells at 1 to 5 mM by isothermal titration calorimetry
[2] = biological target: T1, Cyclin-dependent kinase 2; assay: Binding affinity to full-length human CDK2 expressed in Escherichia coli BL21 (DE3) pLysS cells by isothermal titration calorimetry
[3] = biological target: T1, Cyclin-dependent kinase 2; assay: Binding affinity to full-length human CDK2 expressed in Escherichia coli BL21 (DE3) pLysS cells at 5 mM by isothermal titration calorimetry

Nc1nc(Oc2cccc(CC(=O)O)c2)c2nc[nH]c2n1
Activity [1]: inactive

Nc1nc(I)c2nc[nH]c2n1
Kd [2]: 350 µM

Brc1cn[nH]c1
Activity [3]: inactive

NS(=O)(=O)c1ccc(Br)cc1
Activity [3]: inactive

Nc1nc(-c2cccc(CC(=O)O)c2)c2nc[nH]c2n1
Activity [2]: Dose-dependent effect | Kd [2]: 50 µM
